Data: US20040116420A1 (priority 2001, published 2004)

Legend:
HSV-1 [1] = assay: Antiviral activity, HSV-1 in Vero cells, plaque method; format: cell-based; conditions: Human alphaherpesvirus 1, 20 hours, 90% inhibition of plaque formation
Method in brief: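 This is a virus-yield read-out. The culture medium was frozen at −80° C and thawed, and the plaques it formed were counted. It came from Vero monolayers infected with 50,000 pfu HSV-1 and then exposed to the compound for 20 h at 37° C. EC90 is the concentration inhibiting 90% of plaque formation relative to the untreated infected control.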

[2] = system: HSV1 Thimidine kinase variant; assay: Antiviral activity 2, plaque formation in HEL cells; format: cell-based, HSV-1; conditions: Human alphaherpesvirus 1, HEL, 72 h, read-out: Antiviral activity: IC50, HSV1 Thimidine kinase variant
Method: (§1) An Assay Method for Antiviral Activity 2
(§2) The HEL cells were sowed on a 48-well plate and then cultured overnight. The culture supernatant was removed, and 100 μl of 2% FBS-DMEM containing 40 Plaque-forming units of HSV-1, HSV-2, VZV, or CMV was added. A viral solution Was removed 1 hour later, and 500 μl of 2% FBS-DMEM containing 0.5% methylcellulose comprising 50, 25, 12.5, 6.3, 3.2, or 1.6 μM of the test compound was added. In this case, a substance to which 2% FBS-DMEM containing 0.5% methylcellulose not comprising any test compound had been added was designated as a control. In the case of HSV-1, HSV-2, or VZV, incubation was carried out in the presence of 5% CO2 at 37° C. for 3 days. In the case of CMV, incubation was carried out under the same conditions for 14 days. After they were immobilized on formalin and stained with bromophenol blue, the amount of plaque formed was counted, and the ratio of plaque formation of the drug-containing reaction system relative to the control was determined. The concentration of the drug with which the ratio of plaque formation reaches 50% was calculated and determined to be IC50. Concerning HSV-1, an aciclovir-resistant thymidine kinase variant and a DNA polymerase variant were examined in addition to a general aciclovir-sensitive strain.

[3] = system: HSV1 DNA polymerase variant; assay: as above; format: cell-based, HSV-1; conditions: Human alphaherpesvirus 1, HEL, 72 h, read-out: Antiviral activity: IC50, HSV1 DNA polymerase variant
Method: as §1, §2

HSV1 Sensitive strain = assay: as above; format: cell-based, HSV-1; conditions: Human alphaherpesvirus 1, 72 h, 3 days
Method: as §1, §2

HSV-1 [4] = assay: Inhibition of virus multiplication through combined use, plaque formation in Vero cells; format: cell-based; conditions: 3 days
Method: Activity of Inhibiting Virus Multiplication Through Combined use
The Vero cells were sowed on a 48-well plate and then cultured overnight. The culture supernatant was removed, and 100 μl of 2% FBS-DMEM containing 40 Plaque-forming units of HSV-1 was added. A viral solution was removed 1 hour later, And 500 μl of 2% FBS-DMEM containing 0.5% methylcellulose comprising the test Compound was added. In this case, a substance to which 2% FBS-DMEM containing 0.5% methylcellulose not comprising any test compound had been added was designated as a control. They were incubated in the presence of 5% CO2 at 37° C. for 3 days. After they were immobilized on formalin and stained with bromophenol blue, the Amount of plaque formed was counted, and the ratio of plaque formation of the drug-containing reaction system relative to the control was determined. Examination was carried out using the Compound No.18 in combination with aciclovir, the Compound No. 18 in combination with penciclovir, and the Compound No.18 in combination with ganciclovir. In this examination, 25, 12.5, 6.3, 3.2, 1.6, or 0 μM of the Compound No. 18 was used, and 3.2, 1.6, 0.8, 0.4, 0.2, or 0 μM of aciclovir, penciclovir, or ganciclovir was used.

## Cc1c(NC(=O)OC(C)(C)C)ccc2nc(NC(C)(C)C(=O)N(C)CCc3ccccn3)oc(=O)c12 [Compound No.18, (5-methyl-2-{1-methyl-1-[methyl-(2-pyridin-2-yl-ethyl)-carbamoyl]-ethylamino}-4-oxo-4H-benzo[d][1,3]oxazin-6-yl)-carbamic Acid Tert-Butyl Ester]
HSV-1 [1]
  EC90: 8.4 µM
[2]
  IC50: 22.5 µM
[3]
  IC50: 17.1 µM
HSV1 Sensitive strain
  IC50: 10 µM
HSV-1 [4]; in combination with aciclovir
  Inhibition of multiplication of HSV-1 through combined use: synergistically inhibited
HSV-1 [4]; in combination with ganciclovir
  Inhibition of multiplication of HSV-1 through combined use: synergistically inhibited
HSV-1 [4]; in combination with penciclovir
  Inhibition of multiplication of HSV-1 through combined use: synergistically inhibited
